Laboratory results: patent US20260125400A1, “TYK2 DEGRADERS AND USES THEREOF” (Kymera Therapeutics, Inc., priority 2023, published 2026)

Biological target: T1, TYK2 (Homo sapiens, UniProt P29597)
T1 construct: Degradation of TYK2 in cells was quantitatively measured using Meso Scale Discovery (MSD) technology; endogenous in cells; host or cells: OCI-LY10
Test: TYK2 MSD degradation in OCI-LY10 cells
Format: cell-based
Settings: TYK2 degradation in OCI-LY10 cells, 4 to 24 hours incubation; for DC50: read-out: TYK2 MSD OCI-LY10 Rel-DC50
Procedure, shortened: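 OCI-LY10 cells were treated with 9-dose 1:3 series (top 1 to 10 μM final) for 4 to 24 hours at 37° C. Lysate TYK2 quantified by MSD sandwich immunoassay; DC50 and Dmax from four-parameter inhibitor vs. response fit.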

T1 sequence (P29597 whole entry): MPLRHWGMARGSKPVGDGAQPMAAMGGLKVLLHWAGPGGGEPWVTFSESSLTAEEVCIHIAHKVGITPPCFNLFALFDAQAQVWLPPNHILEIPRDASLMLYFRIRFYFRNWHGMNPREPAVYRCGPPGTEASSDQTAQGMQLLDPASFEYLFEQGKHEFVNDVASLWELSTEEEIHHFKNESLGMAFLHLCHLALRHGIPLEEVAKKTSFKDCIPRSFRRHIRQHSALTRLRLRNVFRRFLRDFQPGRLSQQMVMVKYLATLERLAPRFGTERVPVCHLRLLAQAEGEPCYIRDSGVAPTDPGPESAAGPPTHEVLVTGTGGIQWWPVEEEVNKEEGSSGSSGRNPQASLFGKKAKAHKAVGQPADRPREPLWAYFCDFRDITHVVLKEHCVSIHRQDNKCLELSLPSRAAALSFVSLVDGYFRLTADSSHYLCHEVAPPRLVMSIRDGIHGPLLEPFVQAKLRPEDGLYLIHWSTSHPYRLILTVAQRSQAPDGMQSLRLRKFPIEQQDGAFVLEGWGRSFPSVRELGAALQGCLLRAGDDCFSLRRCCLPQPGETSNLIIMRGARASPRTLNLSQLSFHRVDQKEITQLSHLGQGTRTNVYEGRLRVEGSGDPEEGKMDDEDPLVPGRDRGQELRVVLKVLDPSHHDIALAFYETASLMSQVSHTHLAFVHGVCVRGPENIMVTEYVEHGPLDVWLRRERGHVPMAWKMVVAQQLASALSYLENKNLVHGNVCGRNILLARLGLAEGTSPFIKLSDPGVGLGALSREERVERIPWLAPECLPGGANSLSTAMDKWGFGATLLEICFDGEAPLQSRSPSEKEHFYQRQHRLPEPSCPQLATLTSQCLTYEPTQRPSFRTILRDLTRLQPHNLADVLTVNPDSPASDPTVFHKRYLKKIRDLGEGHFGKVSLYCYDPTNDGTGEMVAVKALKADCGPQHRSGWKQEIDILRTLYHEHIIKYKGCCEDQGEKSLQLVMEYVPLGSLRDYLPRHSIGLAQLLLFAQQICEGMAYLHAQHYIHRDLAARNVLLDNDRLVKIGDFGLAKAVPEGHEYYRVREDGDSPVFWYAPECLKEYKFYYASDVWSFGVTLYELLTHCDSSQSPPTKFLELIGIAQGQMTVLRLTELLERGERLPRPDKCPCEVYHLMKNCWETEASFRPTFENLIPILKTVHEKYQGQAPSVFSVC

SMILES | TYK2 MSD OCI-LY10 Dmax % | DC50 [nM]
CNc1cc(N2CCc3c(-c4ccc(CN5CCC6(CCN(C(=O)c7ccc(C(F)F)c(N8CCC(=O)NC8=O)c7)CC6)C(F)(F)C5)cn4)cccc32)nn2c(C(=O)N[C@@H]3C[C@@H]3F)cnc12 [I-980] | C (C (75 to 50%)) | < 10
CNc1cc(N2CCc3c(-c4ncc(CN5CC6(CCN(C(=O)c7cc(C)c(Cl)c(N8CCC(=O)NC8=O)c7)CC6(F)F)C5)cc4F)cccc32)nn2c(C(=O)NC3CC3)cnc12 [I-982] | B (B (90 to >75%)) | < 1
CNc1cc(N2CCc3c(-c4ncc(CN5CC6(CCN(C(=O)c7cc(C)c(C)c(N8CCC(=O)NC8=O)c7)CC6(F)F)C5)cc4F)cccc32)nn2c(C(=O)N[C@@H]3C[C@@H]3F)cnc12 [I-989] | A (A (>90%)) | < 1
CNc1cc(N2CCc3c(-c4ncc(CN5CC6(CCN(C(=O)c7cc(C)c(Cl)c(N8CCC(=O)NC8=O)c7)CC6(F)F)C5)cc4F)cccc32)nn2c(C(=O)NC3CCCC3)cnc12 [I-990] | B (B (90 to >75%)) | < 10
CNc1cc(N2CCc3c(-c4ncc(CN5CC6(CCN(C(=O)c7cc(C)c(Cl)c(N8CCC(=O)NC8=O)c7)CC6(F)F)C5)cc4F)cccc32)nn2c(C(=O)NC3CCC3)cnc12 [I-991] | B (B (90 to >75%)) | < 10
CNc1cc(N2CCc3c(-c4ncc(CN5CC6(CCN(C(=O)c7cc(C)c(C)c(N8CCC(=O)NC8=O)c7)CC6(F)F)C5)cc4F)cccc32)nn2c(C(=O)NC3CCC3OC)cnc12 (stereo not drawn) [I-993] | A (A (>90%)) | < 1
CNc1cc(N2CCc3c(-c4ncc(CN5CC6(CCN(C(=O)c7cc(F)c(Cl)c(N8CCC(=O)NC8=O)c7)CC6(F)F)C5)cc4F)cccc32)nn2c(C(=O)N[C@@H]3C[C@@H]3F)cnc12 [I-994] | A (A (>90%)) | < 1
CNc1cc(N2CCc3c(CN4CCC(N5CCC6(CCN(C(=O)c7cc(C)c(C)c(N8CCC(=O)NC8=O)c7)CC6)CC5)C(F)(F)C4)cccc32)nn2c(C(=O)N[C@@H]3CC[C@H]3OC)cnc12 (stereo partly drawn) [I-995] | A (A (>90%)) | < 1
CNc1cc(N2CCc3c(-c4ccc(CN5CCC6(CCN(C(=O)c7cc(C)c(Cl)c(N8CCC(=O)NC8=O)c7)CC6)C(F)(F)C5)cn4)cccc32)nn2c(C(=O)NC3CCC3(F)F)cnc12 (stereo not drawn) [I-996] | B (B (90 to >75%)) | < 10
CNc1cc(N2CCc3c(-c4ccc(OC5CC6(CCN(C(=O)c7cc(C)c(Cl)c(N8CCC(=O)NC8=O)c7)CC6)C5)cn4)cccc32)nn2c(C(=O)N[C@@H]3CC[C@H]3OC)cnc12 [I-997] | A (A (>90%)) | < 1
CNc1cc(N2CCc3c(-c4ccc(CN5CCC6(CCN(C(=O)c7cc(C)c(Cl)c(N8CCC(=O)NC8=O)c7)CC6)C(F)(F)C5)cn4)cccc32)nn2c(C(=O)NC3CCCC3(F)F)cnc12 (stereo not drawn) [I-998] | C (C (75 to 50%)) | 10 to 100
CNc1cc(N2CCc3c(CN4CCC(N5CCC6(CCN(C(=O)c7cc(Cl)c(C)c(N8CCC(=O)NC8=O)c7)CC6)CC5)C(F)(F)C4)cccc32)nn2c(C(=O)NC3CCC3OC)cnc12 (stereo not drawn) [I-1000] | A (A (>90%)) | < 1
CNc1cc(N2CCc3c(-c4ncc(CN5CC6(CCN(C(=O)c7ccc(C)c(N8CCC(=O)NC8=O)c7)CC6(F)F)C5)cc4F)cccc32)nn2c(C(=O)N[C@@H]3CC[C@H]3OC)cnc12 [I-1004] | A (A (>90%)) | < 1
CNc1cc(N2CCc3c(-c4ncc(CN5CC6(CCN(C(=O)c7cc(N8CCC(=O)NC8=O)c(Cl)cc7F)CC6(F)F)C5)cc4F)cccc32)nn2c(C(=O)NC3CCC3OC)cnc12 (stereo not drawn) [I-1005] | A (A (>90%)) | < 1
CNc1cc(N2CCc3c(-c4ccc(CN5CCC(N6CCC(COc7ccc(Cl)c(N8CCC(=O)NC8=O)c7)CC6)CC5)cn4)cccc32)nn2c(C(=O)NC3CCC3OC)cnc12 (stereo not drawn) [I-1006] | B (B (90 to >75%)) | < 10
